Values joined by “and” are separate entries in the source; they are usually repeats but may differ in a detail not shown here. Identical values can stand only once. Toxic doses and inconclusive results are not listed.
System: P388 leukemia ip, CD2F1 mice, survival T/C
Test: NCI In Vivo Anticancer Drug Screen. Data for tumor model P388 Leukemia (intraperitoneal) in CD2F1 (CDF1) mice
Settings: endpoint: median survival time, higher = longer survival
Procedure, shortened: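 Mice carrying the transplanted tumor received test compound or vehicle. Survival was recorded in each group, and the value is the treated-group measurement divided by that of the vehicle-treated control group.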

[1] = dose: 12.5 mg/kg/injection, schedule: Q01DX009 (ip), vehicle: saline with Tween-80
[2] = dose: 25.0 mg/kg/injection, schedule: Q01DX009 (ip), vehicle: saline with Tween-80
[3] = dose: 50.0 mg/kg/injection, schedule: Q01DX009 (ip), vehicle: saline with Tween-80
[4] = dose: 50.0 mg/kg/injection, schedule: Q01DX005 (ip), vehicle: saline
[5] = dose: 100.0 mg/kg/injection, schedule: Q01DX005 (ip), vehicle: saline
[6] = dose: 200.0 mg/kg/injection, schedule: Q01DX005 (ip), vehicle: saline
[7] = dose: 100.0 mg/kg/injection, schedule: Q04DX003 (ip), vehicle: saline with Tween-80
[8] = dose: 400.0 mg/kg/injection, schedule: Q04DX003 (ip), vehicle: saline with Tween-80
[9] = dose: 6.25 mg/kg/injection, schedule: Q01DX009 (ip), vehicle: saline
[10] = dose: 12.5 mg/kg/injection, schedule: Q01DX009 (ip), vehicle: saline
[11] = dose: 25.0 mg/kg/injection, schedule: Q01DX009 (ip), vehicle: saline
[12] = dose: 6.25 mg/kg/injection, schedule: Q01DX005 (ip), vehicle: saline
[13] = dose: 12.5 mg/kg/injection, schedule: Q01DX005 (ip), vehicle: saline
[14] = dose: 50.0 mg/kg/injection, schedule: Q01DX009 (ip), vehicle: Klucel (hydroxypropylcellulose) (HPC)
[15] = dose: 100.0 mg/kg/injection, schedule: Q01DX009 (ip), vehicle: Klucel (hydroxypropylcellulose) (HPC)
[16] = dose: 200.0 mg/kg/injection, schedule: Q01DX009 (ip), vehicle: Klucel (hydroxypropylcellulose) (HPC)

In the case of `CCC1C[N+]2=C(c3cc(OC)c(OC)cc3CC2)c2c1cc1n2CCc2cc(OC)c(OC)cc2-1` (stereo not drawn), the T/C (dose: 0.75 mg/kg/injection, schedule: Q01DX005 (ip), vehicle: saline with Tween-80) is reported as 101 % of control, the T/C (dose: 1.5 mg/kg/injection, schedule: Q01DX005 (ip), vehicle: saline with Tween-80) is reported as 109 % of control and the T/C (dose: 3.0 mg/kg/injection, schedule: Q01DX005 (ip), vehicle: saline with Tween-80) is reported as 117 % of control. For the same molecule, the T/C (dose: 3.12 mg/kg/injection, schedule: Q01DX005 (ip), vehicle: saline with Tween-80) was 111 % of control, the T/C (dose: 6.25 mg/kg/injection, schedule: Q01DX005 (ip), vehicle: saline with Tween-80) was 109 % of control and the T/C (dose: 12.5 mg/kg/injection, schedule: Q01DX005 (ip), vehicle: saline with Tween-80) was 114 % of control.
For `O=C(N/N=C/c1cccc(O)c1)C(=O)N/N=C/c1cccc(O)c1`, the T/C (dose: 50.0 mg/kg/injection, schedule: Q01DX009 (ip), vehicle: water) was 101 % of control, the T/C (dose: 100.0 mg/kg/injection, schedule: Q01DX009 (ip), vehicle: water) was 100 % of control and the T/C (dose: 200.0 mg/kg/injection, schedule: Q01DX009 (ip), vehicle: water) was 102 % of control.
In the case of `Nc1[nH]nc(Nc2cccc(Cl)c2Cl)c1C(=O)c1cccs1`, the T/C [1] is reported as 101 % of control, the T/C [2] is reported as 99 % of control and the T/C [3] is reported as 99 % of control and 100 % of control. For the same molecule, the T/C (dose: 100.0 mg/kg/injection, schedule: Q01DX009 (ip), vehicle: saline with Tween-80) was 96 % of control and the T/C (dose: 200.0 mg/kg/injection, schedule: Q01DX009 (ip), vehicle: saline with Tween-80) was 98 % of control.
For `COc1nc(NC2OC(CO)C(O)C(O)C2O)c(Cl)c(=O)[nH]1` (stereo not drawn), the T/C (dose: 60.0 mg/kg/injection, schedule: Q01DX005 (ip), vehicle: saline) was 97 % of control, the T/C (dose: 120.0 mg/kg/injection, schedule: Q01DX005 (ip), vehicle: saline) was 94 % of control and the T/C (dose: 240.0 mg/kg/injection, schedule: Q01DX005 (ip), vehicle: saline) was 102 % of control.
For `CCS1=C(C(C)=O)C(=O)OC(C)C1` (stereo not drawn), the T/C [4] was 100 % of control, the T/C [5] was 100 % of control and the T/C [6] was 106 % of control.
For `C[C@H]1C[C@H]2[C@@H]3CC[C@](O)(C(=O)CO)[C@@]3(C)C[C@H](O)[C@]2(F)[C@@]2(C)C=CC(=O)C=C12`, the T/C [1] was 95 % of control, the T/C [2] was 104 % of control and the T/C [3] was 104 % of control. The T/C [7] was 109 % of control, the T/C (dose: 200.0 mg/kg/injection, schedule: Q04DX003 (ip), vehicle: saline with Tween-80) was 109 % of control and the T/C [8] was 90 % of control.
For `COc1ccc([N+](=O)[O-])c2ccc(C(=O)O)nc12`, the T/C [4] was 103 % of control, the T/C [5] was 97 % of control and the T/C [6] was 110 % of control.
With `Cc1ccc(OP(=O)(Oc2ccc(C)cc2)Oc2ccc(C)cc2)cc1.Cc1ccc(OP(=O)(Oc2ccc(C)cc2)Oc2ccc(C)cc2)cc1.[Cl][Cr]([Cl])[Cl]` the T/C (dose: 100.0 mg/kg/injection, schedule: Q01DX001 (ip), vehicle: Klucel (hydroxypropylcellulose) (HPC)) was 100 % of control, the T/C (dose: 200.0 mg/kg/injection, schedule: Q01DX001 (ip), vehicle: Klucel (hydroxypropylcellulose) (HPC)) was 95 % of control and the T/C (dose: 400.0 mg/kg/injection, schedule: Q01DX001 (ip), vehicle: Klucel (hydroxypropylcellulose) (HPC)) was 99 % of control.
In the case of `CC(=O)N(O)c1ccc2c(c1)Cc1cc(F)ccc1-2`, the T/C (dose: 50.0 mg/kg/injection, schedule: Q01DX005 (ip), vehicle: saline with Tween-80) is reported as 110 % of control and 121 % of control, the T/C (dose: 100.0 mg/kg/injection, schedule: Q01DX005 (ip), vehicle: saline with Tween-80) is reported as 120 % of control and the T/C (dose: 200.0 mg/kg/injection, schedule: Q01DX005 (ip), vehicle: saline with Tween-80) is reported as 123 % of control. The T/C (dose: 400.0 mg/kg/injection, schedule: Q01DX005 (ip), vehicle: saline with Tween-80) was 116 % of control.
With `O=NN(CCCl)C(=O)NCCO` the T/C (dose: 0.78 mg/kg/injection, schedule: Q01DX005 (ip), vehicle: water) was 96 % of control, the T/C (dose: 3.12 mg/kg/injection, schedule: Q01DX005 (ip), vehicle: water) was 104 % of control and the T/C (dose: 3.13 mg/kg/injection, schedule: Q01DX005 (ip), vehicle: water) was 250 % of control. The T/C (dose: 12.5 mg/kg/injection, schedule: Q01DX005 (ip), vehicle: water) was 116 % of control, the T/C (dose: 25.0 mg/kg/injection, schedule: Q01DX005 (ip), vehicle: water) was 150 % of control and the T/C (dose: 50.0 mg/kg/injection, schedule: Q01DX005 (ip), vehicle: water) was 218 % of control.
With `CC(/C=C/c1ccco1)=N\O` the T/C (dose: 12.5 mg/kg/injection, schedule: Q01DX009 (ip), vehicle: other) was 104 % of control, the T/C (dose: 25.0 mg/kg/injection, schedule: Q01DX009 (ip), vehicle: other) was 100 % of control and the T/C (dose: 50.0 mg/kg/injection, schedule: Q01DX009 (ip), vehicle: other) was 91 % of control.
`O=C(/C=C/c1ccccc1)c1ccc(O)cc1` was tested, and the T/C (dose: 6.25 mg/kg/injection, schedule: Q01DX009 (ip), vehicle: saline with Tween-80) was 103 % of control, the T/C [1] was 109 % of control and the T/C [2] was 110 % of control. For the same molecule, the T/C (dose: 50.0 mg/kg/injection, schedule: Q04DX003 (ip), vehicle: saline with Tween-80) was 98 % of control, the T/C [7] was 98 % of control and the T/C [8] was 114 % of control.
With `CC1=CC(=O)[C@@H](O)[C@]2(C)[C@H]3[C@@]4(O)OC[C@]35[C@H]([C@@H](C)[C@H]4O)[C@@H](O)C(=O)O[C@@H]5C[C@@H]12` the T/C [9] was 115 % of control, the T/C [10] was 104 % of control and the T/C [11] was 115 % of control.
For `CCCCN(CCCC)c1cc(C(=O)CCCCCN)c2ccccc2n1`, the T/C [12] was 97 % of control, the T/C [13] was 90 % of control and the T/C (dose: 25.0 mg/kg/injection, schedule: Q01DX005 (ip), vehicle: saline) was 90 % of control and 94 % of control.
`C[C@@H](O)c1nc(C(N)=O)cs1` was tested, and the T/C (dose: 60.0 mg/kg/injection, schedule: Q01DX005 (ip), vehicle: saline with Tween-80) was 104 % of control, the T/C (dose: 120.0 mg/kg/injection, schedule: Q01DX005 (ip), vehicle: saline with Tween-80) was 109 % of control and the T/C (dose: 240.0 mg/kg/injection, schedule: Q01DX005 (ip), vehicle: saline with Tween-80) was 106 % of control.
`Cc1cc(C)nc(NCCCCCCCCNc2nc(C)cc(C)n2)n1` was tested, and the T/C (dose: 50.0 mg/kg/injection, schedule: Q01DX005 (ip), vehicle: Klucel (hydroxypropylcellulose) (HPC)) was 91 % of control, the T/C (dose: 100.0 mg/kg/injection, schedule: Q01DX005 (ip), vehicle: Klucel (hydroxypropylcellulose) (HPC)) was 96 % of control and the T/C (dose: 200.0 mg/kg/injection, schedule: Q01DX005 (ip), vehicle: Klucel (hydroxypropylcellulose) (HPC)) was 90 % of control.
`COc1ccc2[nH]c(C)cc2c1CN` was tested, and the T/C (dose: 3.12 mg/kg/injection, schedule: Q01DX009 (ip), vehicle: saline) was 113 % of control, the T/C [9] was 101 % of control and the T/C [10] was 112 % of control.
For `OCC(O)C(O)C(O)C(O)CO` (stereo not drawn), the T/C (dose: 400.0 mg/kg/injection, schedule: Q01DX009 (ip), vehicle: saline) was 107 % of control, the T/C (dose: 1200.0 mg/kg/injection, schedule: Q01DX009 (ip), vehicle: saline) was 110 % of control and the T/C (dose: 1600.0 mg/kg/injection, schedule: Q01DX005 (ip), vehicle: saline) was 106 % of control. The T/C (dose: 2400.0 mg/kg/injection, schedule: Q01DX005 (ip), vehicle: saline) was 104 % of control.
In the case of `CC(=O)C1=C(O)/C(=C\C=C\c2ccccc2)OC1=O`, the T/C [14] is reported as 111 % of control, the T/C [15] is reported as 104 % of control and the T/C [16] is reported as 118 % of control.
`CC(=O)Nc1ccc(C(=O)C(C)Cl)cc1` (stereo not drawn) was tested, and the T/C [14] was 100 % of control and 104 % of control and 105 % of control, the T/C [15] was 105 % of control and 117 % of control and 89 % of control and the T/C [16] was 99 % of control and 117 % of control and 123 % of control. For the same molecule, the T/C (dose: 400.0 mg/kg/injection, schedule: Q01DX009 (ip), vehicle: Klucel (hydroxypropylcellulose) (HPC)) was 105 % of control.
`[O-][n+]1ccccc1C1CO1` (stereo not drawn) was tested, and the T/C [9] was 105 % of control, the T/C [10] was 103 % of control and the T/C [11] was 102 % of control. The T/C (dose: 100.0 mg/kg/injection, schedule: Q01DX009 (ip), vehicle: saline) was 88 % of control.
In the case of `CC/C(=C(\CC)c1ccc(OCCN(C)C)cc1)c1ccc(OCCN(C)C)cc1`, the T/C [12] is reported as 104 % of control and the T/C [13] is reported as 98 % of control.

From PubChem BioAssay AID330 (DTP/NCI, 2004)
